Measured values from patent publication US20220331286A1, “CANNABIS LIMITS CANCER STEM CELL GROWTH IN POORLY DIFF[…]” (The Regents of the University of California, priority 2021, published 2022).
“Also recorded” adds a separate entry of the source.

Columns and labels:
breast cancer cell lines = conditions: not normal breast epithelium; cited from earlier work
[1] = tested on: PL-12 well-differentiated pancreatic tumor cells; conditions: WIN 55,212-2, 48 h; mesylate
[2] = tested on: oral squamous carcinoma stem cells (OSCSCs); experiment: Cell death by propidium iodide staining and flow cytometry; format: cell-based, human
Experimental: (§1) After an overnight incubation the cells were washed twice and stained with propidium iodide (PI) at a concentration of 3 μg/ml. Flow cytometric analysis was performed using Attune flow cytometer results were analyzed using FlowJo vX software (Ashland, Oreg.).

[3] = tested on: Oral squamous carcinoma cells (OSCCs); experiment: as above; format: cell-based, human; conditions: WIN 55,212-2 75 and 100 μM, 24 hours
Experimental: as §1

[4] = tested on: PL-12 well-differentiated pancreatic tumor cells; experiment: Microscopy of cell morphology and viability; format: cell-based, human; conditions: different concentrations of WIN 55,212-2; CDDP 50 μg/mL; 24 hours
[5] = tested on: mouse models of breast cancer, non-small cell lung cancer, and non-melanoma skin cancer; conditions: cited from earlier work
[6] = tested on: oral squamous carcinoma stem cells (OSCSCs); experiment: Viable cell count (Trypan Blue) after treatment; format: cell-based, human; conditions: WIN 55,212-2 10, 25, 50, 100 μM; CDDP 50 μg/ml; 24 hours; mesylate
Experimental: (§2) Oral squamous carcinoma cells (OSCCs) and oral squamous carcinoma stem cells (OSCSCs) were isolated from cancer patients with tongue tumors at UCLA. The cells were cultured in RPMI 1640 complete medium with 10% fetal bovine serum (FBS) 1.4% Antibiotic-Antimycotic, 1% sodium pyruvate, 1.4% non-essential amino acids, 1% L-glutamine, 0.2% gentamicin (Gemini Bio-Products, CA, USA), and 0.15% sodium bicarbonate (Fisher Scientific, PA, USA).
(§3) As shown in FIG. 1A-1E, OSCSCs are affected more by WIN 55,212-2 than OSCCs. Both OSCCs (oral squamous carcinoma cells) and OSCSCs (oral squamous carcinoma stem cells) were treated with various concentrations of WIN 55,212-2 (10, 25, 50, and 100 μM) and CDDP (50 μg/ml), and the cell numbers were determined after 24 hours of treatment.
(§4) RPMI 1640 (Gibco, Thermo Fisher Scientific, USA) complete medium with 10% fetal bovine serum (FBS) (Gemini Bio-Products, San Diego, Calif., USA), 1.4% of non-essential amino acid (Gibco, Thermo Fisher Scientific, USA), 1.4% sodium pyruvate (Gibco, Thermo Fisher Scientific, USA), 0,15% of sodium bicarbonate (Fisher Scientific, Waltham, Mass., USA) and 1% antibiotics/antimycotics (Gemini Bio-Products, San Diego, Calif., USA) was used for oral tumor culture. DMEM (Gibco, Thermo Fisher Scientific, USA) supplemented with 10% FBS and 1% antibiotics/antimycotics was used for pancreatic tumor cell culture. Oral squamous carcinoma cells (OSCCs) and oral squamous carcinoma stem cells (OSCSCs) were isolated from cancer patients with tongue tumor at UCLA. Human pancreatic cancer cell lines MIA PaCa-2 (MP2) and PL-12 were generously provided by Dr. Guido Eibl (UCLA David Geffen School of Medicine) and by Dr. Nicholas Cacalano (UCLA Jonsson Comprehensive Cancer Center), respectively. […] CDDP was purchased from Ronald Reagan UCLA Medical Center Pharmacy. […] TNF-α and IFN-γ were purchased from Peprotech (Rockyhill, N.J.).
(§5) The number of viable cells was counted under light microscope using Trypan Blue staining (Sigma, Mo., USA).

[7] = tested on: Oral squamous carcinoma cells (OSCCs); experiment: Viable cell count (Trypan Blue) after treatment; format: cell-based, human; conditions: 24 hours
Experimental: as §2, §3, §4, §5

[8] = tested on: Oral squamous carcinoma cells (OSCCs); experiment: Microscopy of cell morphology and viability; format: cell-based, human
[9] = tested on: MIA PaCa-2 (MP2) poorly differentiated/stem like pancreatic tumor cells; experiment: Cell death by propidium iodide staining and flow cytometry; format: cell-based, human
Description: (§6) Propidium iodide (PI) staining was used to determine the cell death by flow cytometry.

[10] = tested on: PL-12 well-differentiated pancreatic tumor cells; experiment: as above; format: cell-based, human; conditions: WIN 55,212-2 25-100 μM, 24-48 hours
Description: as §6

[11] = tested on: MIA PaCa-2 (MP2) poorly differentiated/stem like pancreatic tumor cells; experiment: Viable cell count (Trypan Blue) after treatment; format: cell-based, human
Description: (§7) Six different pancreatic tumor cell lines each characterized at poorly, intermediate and well differentiated stages pathologically by other laboratories previously were used to determine phenotype, susceptibility to NK cell-mediated cytotoxicity and secretion of IFN-γ directly correlating with the differentiation stages of the tumors. […] Furthermore, the stage of differentiation of the tumors was correlated with sensitivity to NK cell mediated cytotoxicity in pancreatic tumor cells. […] Therefore, a direct correlation between augmented sensitivity to NK-mediated lysis and poor differentiation of pancreatic tumors was evident from these experiments. For the following experiments MP2 and PL12 were used as representative tumor types for poorly differentiated and well differentiated tumors respectively. Human pancreatic cancer cell line MIA PaCa-2 (MP2), was provided by Dr. Guido Eibl (UCLA David Geffen School of Medicine) and PL12 was provided by Dr. Nicholas Cacalano (UCLA Jonsson Comprehensive Cancer Center). MP2 tumors were cultured with DMEM in supplement with 10% FBS and 1% Penicillin-Streptomycin (Gemini Bio-Products, CA). PL12 pancreatic tumors were cultured in RMPI 1640 medium supplemented with 10% FBS and 1% penicillin-streptomycin.
as §4, §5

[12] = tested on: PL-12 well-differentiated pancreatic tumor cells; experiment: Viable cell count (Trypan Blue) after treatment; format: cell-based, human
Description: as §7, §4, §5

[13] = tested on: oral squamous carcinoma stem cells (OSCSCs); experiment: Microscopy of cell morphology and viability; format: cell-based, human; conditions: WIN 55,212-2 even at the lowest concentrations; CDDP 50 μg/mL; 24 h
tumor = experiment: Cytostatic effect: tumor-cell coverage of the well-plate (FIG. 2); format: cell-based; conditions: at higher concentrations (FIG. 2)
Description: In FIG. 2, the cystostatic effect of WIN 55,212-2 are shown.

[14] = tested on: MIA PaCa-2 (MP2) poorly differentiated/stem like pancreatic tumor cells; experiment: Microscopy of cell morphology and viability; format: cell-based, human; conditions: different concentrations of WIN 55,212-2; CDDP 50 μg/mL; 24 hours
[15] = tested on: MIA PaCa-2 (MP2) poorly differentiated/stem like pancreatic tumor cells
[16] = tested on: oral squamous carcinoma stem cells (OSCSCs)
[17] = tested on: Oral squamous carcinoma cells (OSCCs)
[18] = different concentrations of WIN 55,212-2, dose-dependent, 24-48 hours
[19] = WIN 55,212-2 (5-50 μM), 24 hours, mesylate
[20] = various concentrations of WIN 55,212-2, 24 hours and 48 hours (FIG. 4A-4B)
[21] = WIN 55,212-2 (5-50 μM), 24 hours, vs untreated control, mesylate

**Q.** What does the source list for `CS(=O)(=O)O.Cc1c(C(=O)c2cccc3ccccc23)c2cccc3c2n1[C@H](CN1CCOCC1)CO3` [WIN 55,212-2, (R)-(+)-[2,3-Dihydro-5-methyl-3-(4-morpholinylmethyl)pyrrolo[1,2,3-de]-1,4-benzoxazin-6-yl]-1-naphthalenylmethanone mesylate]?
**A.** effect on radiotherapy / anti-proliferative effects of radiation (breast cancer cell lines): synergistically increased the effects of radiotherapy; CD44 cell surface expression, PL-12 [1]: decreased expressions; also recorded: Decreased cell surface expression; CD54 cell surface expression, PL-12 [1]: decreased expressions; also recorded: decreased the expression; amounts of cell death in OSCSCs compared with those induced by CDDP ([2]; WIN 55,212-2 25-100 μM, compiled data): either similar or higher when compared to those induced by CDDP; cell death in OSCSCs compared with OSCCs (PI staining) ([2]; all WIN 55,212-2 concentrations tested, 24 hours, mesylate): higher cell death; cell death in OSCCs (PI staining) [3]: up to 10%; morphology/viability of PL-12 under the microscope [4]: maintained their morphology and remained viable; tumor burden, lung metastasis and tumor induced angiogenesis in vivo [5]: reduce tumor burden, lung metastasis and tumor induced angiogenesis; killing / decrease in cell numbers of OSCSCs, in words [6]: significantly killed; also recorded: significantly greater than OSCCs; killing / decrease in cell numbers of OSCCs, in words ([7]; WIN 55,212-2 10, 25, 50, 100 μM, CDDP 50 μg/ml, mesylate): much less; also recorded: smaller decrease in cell numbers; decrease in cell numbers of OSCC (viable cells) ([7]; WIN 55,212-2 10-100 μM): 10-25%; morphology/viability of OSCCs under the microscope ([8]; WIN 55,212-2 50 μM or higher, CDDP 50 μg/mL, 24 h): some of the OSCCs still remained viable but some rounded up and detached and were not viable; morphology/viability of OSCCs under the microscope ([8]; low concentrations of WIN 55,212-2, 24 h): remained viable; percentages of dead cells, MP2 (PI staining) ([9]; WIN 55,212-2 25-100 μM, 24-48 hours): approximately 30%; increase in cell death in MP2s compared with PL12 (PI staining) ([9]; various concentrations of WIN 55,212-2, 48 hours): greater higher increase in cell death; percentages of dead cells, PL-12 (PI staining) [10]: up to 20%; decreased numbers of viable cells, MP2 [11, 18]: 60-85%; percent decrease in cell numbers of MP2s, in words ([11]; various concentrations of WIN 55,212-2): significantly greater than PL12s; decreased numbers of viable cells, PL-12 [12, 18]: 50-70%; percent decrease in cell numbers of PL12, in words ([12]; various concentrations of WIN 55,212-2, CDDP 50 μg/ml): smaller decreases in cell numbers; morphology/attachment of OSCSCs under the microscope [13]: became detached from the culture plates; cytostatic effect (fold change of the tumor-cell coverage of the well-plate) (tumor): arrests the tumor growth; morphology/viability of MP2 under the microscope [14]: largely lost their shape and morphology, and had detached from the plates; CD44 cell surface expression, MP2 ([15]; WIN 55,212-2, 48 h, mesylate): decreased expressions; also recorded: Decreased cell surface expression; CD54 cell surface expression, MP2 ([15]; WIN 55,212-2, 48 h, mesylate): decreased expressions; also recorded: decreased the expression; MHC class I cell surface expression, MP2 ([15]; WIN 55,212-2, 48 h, mesylate): decreased expressions; also recorded: decreased on MP2; PD-L1 (B7H1) cell surface expression, MP2 ([15]; WIN 55,212-2, 48 h, mesylate): decreased expressions; also recorded: decreased in MP2; extent of decrease in all surface receptor expressions, MP2 compared with PL-12 ([15]; WIN 55,212-2 treatments (FIG. 17F)): significantly greater than those seen in PL-12 tumor cells; CD44 cell surface expression, OSCSCs [16, 19]: decreased expressions; CD54 cell surface expression, OSCSCs [16, 19]: decreased expressions; PD-L1 (B7H1) cell surface expression, OSCSCs [16, 19]: decreased expressions; MHC class I expression on the cell surface, OSCSCs [16, 20]: decreases in MHC class I expression; CD44 cell surface expression, OSCCs [17, 21]: Decreased expression; CD54 cell surface expression, OSCCs [17, 21]: Decreased expression; MHC class I cell surface expression, OSCCs [17, 21]: Decreased expression; PD-L1 (B7H1) cell surface expression, OSCCs [17, 21]: Decreased expression; MHC class I expression on the cell surface, OSCCs [17, 20]: decreases in MHC class I expression
